This is an account of results in PubChem BioAssay (NCI).

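A five-concentration, 48-hour dose response in 96-well plates underlies each endpoint, interpolated linearly between surrounding concentrations. Here, GI50 denotes the concentration required for 50% inhibition of growth. TGI is the concentration that stops growth completely.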 A value given as a limit tells only on which side of the number the result lay.

A word on the TGI: it is the concentration giving total growth inhibition. One may read the GI50 as the concentration giving 50% growth inhibition.

Test systems include SK-MEL-5 melanoma; ACHN renal; HOP-62 NSCLC; UACC-257 melanoma; A549 NSCLC; RPMI-8226 leukemia; T-47D breast; HOP-92 NSCLC; NCI-H23 lung; HCC-2998 colon.
Common to all, as to assay: DTP human tumour cell line panel, 48 h

In the case of `O=C[C@@H](CO)O[C@H](C=O)c1c[nH]c(=O)[nH]c1=O`, the TGI in the experiment with SK-MEL-5 melanoma is 309 µM; in the experiment with ACHN renal, 719 µM; in the experiment on HOP-62 NSCLC, 258 µM; with UACC-257 melanoma, 657 µM; in the experiment with A549 NSCLC it was 1020 µM; in the experiment with RPMI-8226 leukemia, 672 µM. In addition, the TGI came to 606 µM in the experiment with T-47D breast, 237 µM with HOP-92 NSCLC, 539 µM in the experiment with NCI-H23 lung and 338 µM with HCC-2998 colon.

On to `C/C(=N\NC(=O)c1sc(=S)n(C)c1N)c1cc2ccccc2o1`, for which the GI50 with SK-MEL-5 melanoma is 10.8 µM; with ACHN renal it was 13.4 µM; in the experiment on HOP-62 NSCLC, 13.3 µM; in the experiment on UACC-257 melanoma it was 12.8 µM; in the experiment with A549 NSCLC, 7.68 µM; in the experiment with RPMI-8226 leukemia, 12.5 µM. Further, the GI50 with T-47D breast is 18.6 µM; with HOP-92 NSCLC, 10.3 µM; in the experiment on NCI-H23 lung it was 17.7 µM; with HCC-2998 colon it was 11.8 µM. Moreover, the TGI in the experiment on SK-MEL-5 melanoma was 30.1 µM; with ACHN renal, 38.4 µM; in the experiment on HOP-62 NSCLC, 27.2 µM; in the experiment on UACC-257 melanoma it was 33.4 µM; in the experiment on A549 NSCLC, 20.2 µM; with RPMI-8226 leukemia, 49.4 µM. The TGI with T-47D breast was > 100 µM; with HOP-92 NSCLC, 25.4 µM; with NCI-H23 lung, 58.8 µM; with HCC-2998 colon, 27 µM.

Turning to `COc1cccc2c1C(=O)C=CC2=O`, the TGI in the experiment on SK-MEL-5 melanoma is 30.3 µM; with ACHN renal, 10.5 µM; with HOP-62 NSCLC it was 34.4 µM; with UACC-257 melanoma, 29 µM; with A549 NSCLC, 40.4 µM; in the experiment on RPMI-8226 leukemia it was 7.23 µM. In addition, the TGI in the experiment on T-47D breast worked out at 5.04 µM; in the experiment on HOP-92 NSCLC, 3.75 µM; with NCI-H23 lung it was 30 µM; with HCC-2998 colon it was 29.3 µM.

As to `COc1ccc(OC)c(/C=N/NC(=O)Cc2csc3nc(-c4ccc(Br)cc4)cn23)c1`, the GI50 with SK-MEL-5 melanoma was 8.89 µM; in the experiment on ACHN renal it was 16.9 µM; in the experiment with HOP-62 NSCLC it was 13.2 µM; with UACC-257 melanoma, 23.9 µM; in the experiment with A549 NSCLC it was 11.6 µM; in the experiment on RPMI-8226 leukemia, 10.3 µM. The GI50 with T-47D breast was 41.2 µM; in the experiment on HOP-92 NSCLC, 13.9 µM; with NCI-H23 lung it was 19.3 µM; in the experiment with HCC-2998 colon, 10 µM. Also, the TGI in the experiment with SK-MEL-5 melanoma was 42.5 µM; in the experiment on ACHN renal, 34.5 µM; in the experiment on HOP-62 NSCLC, 30.3 µM; with UACC-257 melanoma, 97.5 µM; with A549 NSCLC it was 38.7 µM; with RPMI-8226 leukemia, > 100 µM. The TGI in the experiment with T-47D breast is > 100 µM; in the experiment on HOP-92 NSCLC it was 35.5 µM; in the experiment with NCI-H23 lung it was 52.3 µM; with HCC-2998 colon, 34.9 µM.

In the case of `Cc1ccc(S(=O)(=O)N2CCCN(S(=O)(=O)c3ccc(C)cc3)CCN(S(=O)(=O)c3ccc(C)cc3)CCCSCC2)cc1`, the TGI with SK-MEL-5 melanoma, in the experiment with ACHN renal, in the experiment on HOP-62 NSCLC, in the experiment on A549 NSCLC, in the experiment on RPMI-8226 leukemia and in the experiment with T-47D breast was > 100 µM each time. For the same molecule, the TGI with HOP-92 NSCLC, in the experiment with NCI-H23 lung and with HCC-2998 colon was > 100 µM throughout.

With `Cc1c2cc[n+](C)cc2c(C)c2c1sc1ccccc12`, the TGI in the experiment on SK-MEL-5 melanoma stood at 4.56 µM; in the experiment on ACHN renal, 33.7 µM; in the experiment with HOP-62 NSCLC, 1.76 µM; with UACC-257 melanoma, 7.01 µM; in the experiment with A549 NSCLC, 3.46 µM; in the experiment on RPMI-8226 leukemia, 5.68 µM. Moreover, the TGI in the experiment with T-47D breast worked out at 3.67 µM; in the experiment with HOP-92 NSCLC, 9.75 µM; in the experiment with NCI-H23 lung, 2.29 µM; in the experiment with HCC-2998 colon, 6.28 µM.

For the molecule `CC1(C)CC(=O)C(CCC(=O)/C=C/c2ccccc2)C(=O)C1`, the TGI with SK-MEL-5 melanoma, in the experiment with ACHN renal, in the experiment with HOP-62 NSCLC, with UACC-257 melanoma, with A549 NSCLC and in the experiment with RPMI-8226 leukemia was > 100 µM throughout. Further, the TGI in the experiment on T-47D breast, in the experiment with HOP-92 NSCLC, in the experiment with NCI-H23 lung and in the experiment with HCC-2998 colon was > 100 µM throughout.

For the molecule `COc1ccc2[nH]c(=O)c3c4ccccc4cn3c2c1`, the GI50 in the experiment with SK-MEL-5 melanoma is 0.377 µM; in the experiment on ACHN renal it was 0.486 µM; in the experiment with HOP-62 NSCLC, 0.228 µM; with UACC-257 melanoma it was 2.67 µM; with A549 NSCLC it was 0.554 µM; in the experiment on RPMI-8226 leukemia, 0.358 µM. For the same molecule, the GI50 is 0.756 µM in the experiment on T-47D breast, 2 µM in the experiment with HOP-92 NSCLC, 0.639 µM with NCI-H23 lung and 0.332 µM with HCC-2998 colon. In addition, the TGI in the experiment on SK-MEL-5 melanoma was determined as 1.44 µM; in the experiment on ACHN renal, 1.72 µM; in the experiment with HOP-62 NSCLC it was 0.885 µM; with UACC-257 melanoma it was 11.1 µM; in the experiment on A549 NSCLC, 2.77 µM; with RPMI-8226 leukemia it was 2.03 µM. The total growth inhibition concentration (TGI) was 3.84 µM with T-47D breast, 8.37 µM in the experiment on HOP-92 NSCLC, 6.59 µM with NCI-H23 lung and 0.807 µM in the experiment with HCC-2998 colon.

With `Cc1cc2nc(C(C)C(=O)c3ccc(Cl)cc3)c(=O)[nH]c2cc1C` (centres undefined), the TGI in the experiment with SK-MEL-5 melanoma, in the experiment with ACHN renal, with HOP-62 NSCLC, in the experiment on UACC-257 melanoma, with A549 NSCLC and in the experiment with RPMI-8226 leukemia was > 100 µM each time. Further, the TGI in the experiment with T-47D breast was > 100 µM; in the experiment on HOP-92 NSCLC, > 100 µM; in the experiment on NCI-H23 lung, > 100 µM; in the experiment with HCC-2998 colon, 33.1 µM.

`CCc1nc(N)nc(N)c1-c1ccc(NCCN)c([N+](=O)[O-])c1`: the TGI was 40 µM in the experiment on SK-MEL-5 melanoma; > 100 µM in the experiment with ACHN renal; 75.8 µM in the experiment on HOP-62 NSCLC; 72.9 µM in the experiment on UACC-257 melanoma; > 100 µM in the experiment on A549 NSCLC; > 88.8 µM in the experiment with RPMI-8226 leukemia. For the same molecule, the TGI in the experiment with T-47D breast is > 100 µM; in the experiment on HOP-92 NSCLC it was > 100 µM; in the experiment on NCI-H23 lung, > 100 µM; with HCC-2998 colon, 50.7 µM.

With `CC[C@]12CCCN3CCc4c(n(c5ccccc45)C(=O)C1)[C@@H]32`, the TGI is > 35.1 µM in the experiment with SK-MEL-5 melanoma; > 100 µM in the experiment on ACHN renal; > 100 µM in the experiment on HOP-62 NSCLC; > 100 µM in the experiment on UACC-257 melanoma; > 100 µM in the experiment on A549 NSCLC; > 65.1 µM in the experiment on RPMI-8226 leukemia. Moreover, the TGI is > 100 µM with T-47D breast, > 100 µM in the experiment with HOP-92 NSCLC, > 100 µM in the experiment on NCI-H23 lung and 19.4 µM in the experiment with HCC-2998 colon.
